System: Bcl-2 G-quadruplex (2F8U, 23-mer with 15,16-G-to-T mutations) (DNA, G4) GGGCGCGGGAGGAATTGGGCGGG
Assay: CD melting at 265 nm
Conditions: 100 mM KCl; 10 mM Tris-HCl pH 7.2; 3 eq ligand, 2 µM DNA

| SMILES | ΔTm |
| --- | --- |
| CC[n+]1c(/C=C/c2ccc3c(c2)c2ccccc2n3CCCCn2ccnc2)sc2ccccc21 | 6.3 °C |
| CC[n+]1c(/C=C/c2ccc3c(c2)c2ccccc2n3CCCCn2cncn2)sc2ccccc21 | 3.0 °C |
| CCn1c2ccccc2c2cc(/C=C/c3sc4ccccc4[n+]3CC)ccc21 | 3.1 °C |

Reference: publication PMC11279778 (2024)
